Molecules are shown by their SMILES.

Dopamine beta-hydroxylase, sequence (P09172 whole entry): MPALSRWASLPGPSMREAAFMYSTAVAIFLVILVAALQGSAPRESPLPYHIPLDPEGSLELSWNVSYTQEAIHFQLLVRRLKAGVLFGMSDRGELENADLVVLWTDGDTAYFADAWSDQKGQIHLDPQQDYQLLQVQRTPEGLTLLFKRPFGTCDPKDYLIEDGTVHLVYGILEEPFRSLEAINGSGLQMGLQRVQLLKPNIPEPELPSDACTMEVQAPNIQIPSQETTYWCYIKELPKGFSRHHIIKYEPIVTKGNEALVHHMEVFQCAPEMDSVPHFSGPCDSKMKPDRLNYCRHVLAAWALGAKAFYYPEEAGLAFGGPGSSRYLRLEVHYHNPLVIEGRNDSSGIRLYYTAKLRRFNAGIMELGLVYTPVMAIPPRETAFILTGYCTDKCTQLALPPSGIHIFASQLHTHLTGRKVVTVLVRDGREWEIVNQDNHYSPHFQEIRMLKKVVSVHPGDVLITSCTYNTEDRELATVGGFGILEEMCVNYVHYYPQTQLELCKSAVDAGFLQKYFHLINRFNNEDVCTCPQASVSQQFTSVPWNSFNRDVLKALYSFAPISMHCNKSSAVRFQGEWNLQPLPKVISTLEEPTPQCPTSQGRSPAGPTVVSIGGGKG

The assay addresses Dopamine beta-hydroxylase (Homo sapiens, UniProt P09172). The assay is described as follows: Inhibition of dopamine beta hydroxylase.
Consider `Oc1ccc(Cn2cc[nH]c2=S)cc1`, for which the IC50 (commonly the concentration that inhibits the measured activity by half) is 2.57 µM.

`S=c1[nH]ccn1Cc1ccccc1` gave an IC50 of 33.1 µM. Against the preceding molecule, the IC50 is about 13-fold higher.

In turn, `Fc1cc(F)cc(Cn2cc[nH]c2=S)c1` gave an IC50 of 1.2 µM.

In the case of `Oc1ccc(Cn2cc[nH]c2=S)cc1C(F)(F)F`, the IC50 was 120 µM.

Molecule `S=c1[nH]ccn1Cc1c(Cl)cccc1Cl` had an IC50 of 708 µM.

Molecule `O=[N+]([O-])c1ccc(Cn2cc[nH]c2=S)cc1` gave an IC50 of 52.5 µM.

As to `S=c1[nH]ccn1Cc1cc(Cl)cc(Cl)c1`, the IC50 was 2.4 µM.

`COc1ccccc1Cn1cc[nH]c1=S` showed an IC50 of 74.1 µM.

As to `S=c1[nH]ccn1Cc1cccc(Cl)c1Cl`, the IC50 was 52.5 µM.

On to `COc1ccc(Cn2cc[nH]c2=S)cc1F`, for which the IC50 was 74.1 µM. The IC50 values of the last two molecules are within 1.5-fold of each other.

The molecule `COc1c(F)cc(Cn2cc[nH]c2=S)cc1F` had an IC50 of 36.3 µM.

For `S=c1[nH]ccn1Cc1c(Cl)cc(Cl)cc1Cl`, the IC50 was 102 µM. This IC50 lies about 2.8-fold higher than the previous one.

`S=c1[nH]ccn1Cc1ccccc1Cl`: inhibition was half-maximal at 355 µM (IC50).

For `COc1c(Cl)cc(Cn2cc[nH]c2=S)cc1Cl`, half-maximal inhibition (IC50) required 46.8 µM. Against the preceding molecule, the IC50 is about 7.6-fold lower.

For the molecule `S=c1[nH]ccn1Cc1ccc(Cl)cc1`, the IC50 was 95.5 µM.

Consider `COc1ccc(Cn2cc[nH]c2=S)cc1OC`, for which the IC50 was 339 µM.

With `S=c1[nH]ccn1Cc1ccc(Cl)cc1Cl`, the IC50 was 17 µM. This IC50 is about 20-fold lower than that of the molecule before.

`Oc1c(F)cc(Cn2cc[nH]c2=S)cc1F` had an IC50 of 0.0741 µM.

The molecule `COc1ccc(Cn2cc[nH]c2=S)cc1Br` showed an IC50 of 83.2 µM.

For `S=c1[nH]ccn1Cc1cc(Cl)ccc1Cl`, the IC50 was 97.7 µM.

`Oc1cccc(Cn2cc[nH]c2=S)c1`: the IC50 is 148 µM.

`O=[N+]([O-])c1cc(Cn2cc[nH]c2=S)ccc1O` had an IC50 of 30.9 µM.

Regarding `Oc1c(F)c(F)c(Cn2cc[nH]c2=S)c(F)c1F`, it took 61.7 µM to reach half-maximal inhibition (IC50).

Regarding `COc1ccc(Cn2cc[nH]c2=S)cc1C`, the IC50 was 69.2 µM. This IC50 and that of the molecule before are within 1.5-fold of each other.

As for `COc1cc(Cl)c(Cn2cc[nH]c2=S)c(Cl)c1`, the IC50 is 155 µM. Against the preceding molecule, the IC50 is about 2.2-fold higher.

For `S=c1[nH]ccn1Cc1ccc(Br)cc1`, the IC50 is 115 µM.

Molecule `Cc1cc(Cn2cc[nH]c2=S)ccc1O` showed an IC50 of 49 µM.

`COc1ccc(Cn2cc[nH]c2=S)cc1[N+](=O)[O-]` gave a half-inhibitory concentration (IC50) of 355 µM.

The molecule `Fc1cccc(Cn2cc[nH]c2=S)c1` gave an IC50 of 5.62 µM.

`Oc1c(Cl)cc(Cn2cc[nH]c2=S)cc1Cl` showed an IC50 of 0.676 µM.

Consider `Oc1ccccc1Cn1cc[nH]c1=S`, for which the IC50 was 575 µM.

The molecule `Oc1ccc(Cn2cc[nH]c2=S)cc1F` gave an IC50 of 1.51 µM.

`FC(F)(F)c1ccc(Cn2cc[nH]c2=S)cc1` showed an IC50 of 200 µM.

Consider `Cc1ccccc1Cn1cc[nH]c1=S`, for which the IC50 was 339 µM.

`Cc1ccc(Cn2cc[nH]c2=S)cc1` showed an IC50 of 148 µM.

Molecule `COc1cccc(OC)c1Cn1cc[nH]c1=S` gave an IC50 of 501 µM. This IC50 is about 3.4-fold higher than that of the molecule before.

`S=c1[nH]ccn1Cc1ccc(Cl)c(Cl)c1` showed an IC50 of 28.2 µM.

Turning to `Oc1ccc(Cn2cc[nH]c2=S)cc1Br`, the IC50 was 12 µM.

The molecule `S=c1[nH]ccn1Cc1cccc(Cl)c1` gave an IC50 of 12 µM.

For the molecule `Oc1cc(Cl)c(Cn2cc[nH]c2=S)c(Cl)c1`, the IC50 was 75.9 µM. This IC50 is about 6.3-fold higher than that of the molecule before.

`COc1ccc(Cn2cc[nH]c2=S)cc1C(F)(F)F` had an IC50 of 174 µM.

`Fc1ccc(Cn2cc[nH]c2=S)cc1` gave an IC50 of 46.8 µM.

Turning to `Oc1ccc(Cn2cc[nH]c2=S)cc1O`, half-maximal inhibition (IC50) required 2.19 µM.

`Cc1cccc(C)c1Cn1cc[nH]c1=S` had an IC50 of 1000 µM.

`COc1cccc(Cn2cc[nH]c2=S)c1` had an IC50 of 158 µM.

As for `COc1ccc(Cn2cc[nH]c2=S)cc1`, the half-inhibitory concentration (IC50) was 204 µM.

The values are drawn from ChEMBL document CHEMBL1128392, “Receptor surface models. 2. Application to quantitative structure-activity relationships studies” (J Med Chem, 1995).
